Results published in ChEMBL document CHEMBL3885881, “DrugMatrix”.

Organism: Rattus norvegicus
Assay: DrugMatrix - Regimen: Daily Repeat
Assay type: toxicity, organism-based, Sprague-Dawley
Design: regimen Daily Repeat, gender Male, age 6-8 weeks
Conditions: in vivo, sc, route subcutaneous, […]; for ABSOLUTE BASOPHIL / ABSOLUTE EOSINOPHIL / ABSOLUTE LYMPHOCYTE / ABSOLUTE MONOCYTE / ABSOLUTE SEGMENTED NEUTROPHIL / BASOPHIL / EOSINOPHIL / ERYTHROCYTE COUNT / HEMATOCRIT / HEMOGLOBIN / LEUKOCYTE COUNT / LYMPHOCYTE / MEAN CORPUSCULAR HEMOGLOBIN / MEAN CORPUSCULAR HEMOGLOBIN CONCENTRATION / MEAN CORPUSCULAR VOLUME / MONOCYTE / NEUTROPHIL / NUCLEATED RED BLOOD CELLS / PLATELET COUNT: tissue Blood; for ALANINE AMINOTRANSFERASE / ALKALINE PHOSPHATASE / ASPARTATE AMINOTRANSFERASE / BLOOD UREA NITROGEN / CARBON DIOXIDE / CHLORIDE / CHOLESTEROL / CREATINE PHOSPHOKINASE / CREATININE / GLUCOSE / LACTATE DEHYDROGENASE / LIPASE / PHOSPHORUS / POTASSIUM / SODIUM / TOTAL BILIRUBIN / TOTAL PROTEIN / URIC ACID: tissue Plasma
[1] = 17 mg/kg, 120 h, dose level Low, time 5 day
[2] = 800 mg/kg, 72 h, dose level High, time 3 day
[3] = 800 mg/kg, 120 h, dose level High, time 5 day

CC(C)Cn1cnc2c(N)nc3ccccc3c21 [IMIQUIMOD]
ABSOLUTE BASOPHIL [1]: 0 CELLS/uL | ABSOLUTE EOSINOPHIL [1]: 29.67 CELLS/uL | ABSOLUTE LYMPHOCYTE [1]: 8944.33 CELLS/uL | ABSOLUTE MONOCYTE [1]: 43 CELLS/uL | ABSOLUTE SEGMENTED NEUTROPHIL [1]: 1349.67 CELLS/uL | BASOPHIL [1]: 0% | EOSINOPHIL [1]: 0.33% | ERYTHROCYTE COUNT [1]: 5.45 x10E6/uL | HEMATOCRIT [1]: 33.33% | HEMOGLOBIN [1]: 12.27 G/DL | LEUKOCYTE COUNT [1]: 10.37 x10E3/uL | LYMPHOCYTE [1]: 85.67% | MEAN CORPUSCULAR HEMOGLOBIN [1]: 22.53 pg | MEAN CORPUSCULAR HEMOGLOBIN CONCENTRATION [1]: 36.77 G/DL | MEAN CORPUSCULAR VOLUME [1]: 61.17 fL | MONOCYTE [1]: 0.33% | NEUTROPHIL [1]: 13.67% | NUCLEATED RED BLOOD CELLS [1]: 0.67 /100WBC | PLATELET COUNT [1]: 1497.33 x10E3/uL | ALANINE AMINOTRANSFERASE [1]: 53 u/L | ALKALINE PHOSPHATASE [1]: 401.33 u/L | ASPARTATE AMINOTRANSFERASE [1]: 93.33 u/L | BLOOD UREA NITROGEN [1]: 17 mg/dL | CARBON DIOXIDE [1]: 23.67 mmol/L | CHLORIDE [1]: 108.67 MEQ/L | CHOLESTEROL [1]: 52.33 mg/dL | CREATINE PHOSPHOKINASE [1]: 410.67 u/L | CREATININE [1]: 0.19 mg/dL | GLUCOSE [1]: 174.67 mg/dL | LACTATE DEHYDROGENASE [1]: 110 u/L | LIPASE [1]: 7 u/L | PHOSPHORUS [1]: 13.1 mg/dL | POTASSIUM [1]: 6.07 MEQ/L | SODIUM [1]: 146.2 MEQ/L | TOTAL BILIRUBIN [1]: 0.2 mg/dL | TOTAL PROTEIN [1]: 5.23 G/DL | URIC ACID [1]: 1.73 mg/dL | ABSOLUTE BASOPHIL [2]: 0 CELLS/uL | ABSOLUTE EOSINOPHIL [2]: 67.67 CELLS/uL | ABSOLUTE LYMPHOCYTE [2]: 7240 CELLS/uL | ABSOLUTE MONOCYTE [2]: 88 CELLS/uL | ABSOLUTE SEGMENTED NEUTROPHIL [2]: 637.67 CELLS/uL | BASOPHIL [2]: 0% | EOSINOPHIL [2]: 1% | ERYTHROCYTE COUNT [2]: 5.31 x10E6/uL | HEMATOCRIT [2]: 33.3% | HEMOGLOBIN [2]: 12.5 G/DL | LEUKOCYTE COUNT [2]: 8.03 x10E3/uL | LYMPHOCYTE [2]: 90% | MEAN CORPUSCULAR HEMOGLOBIN [2]: 23.57 pg | MEAN CORPUSCULAR HEMOGLOBIN CONCENTRATION [2]: 37.57 G/DL | MEAN CORPUSCULAR VOLUME [2]: 62.73 fL | MONOCYTE [2]: 1% | NEUTROPHIL [2]: 8% | NUCLEATED RED BLOOD CELLS [2]: 0 /100WBC | PLATELET COUNT [2]: 828 x10E3/uL | ALANINE AMINOTRANSFERASE [2]: 47 u/L | ALKALINE PHOSPHATASE [2]: 345.33 u/L | ASPARTATE AMINOTRANSFERASE [2]: 91.67 u/L | BLOOD UREA NITROGEN [2]: 15.67 mg/dL | CARBON DIOXIDE [2]: 28.67 mmol/L | CHLORIDE [2]: 107 MEQ/L | CHOLESTEROL [2]: 65 mg/dL | CREATINE PHOSPHOKINASE [2]: 419.33 u/L | CREATININE [2]: 0.27 mg/dL | GLUCOSE [2]: 147 mg/dL | LACTATE DEHYDROGENASE [2]: 130.67 u/L | LIPASE [2]: 7.5 u/L | PHOSPHORUS [2]: 10.23 mg/dL | POTASSIUM [2]: 5.87 MEQ/L | SODIUM [2]: 147.45 MEQ/L | TOTAL BILIRUBIN [2]: 0.13 mg/dL | TOTAL PROTEIN [2]: 5.17 G/DL | URIC ACID [2]: 0.73 mg/dL | ABSOLUTE BASOPHIL [3]: 0 CELLS/uL | ABSOLUTE EOSINOPHIL [3]: 301.33 CELLS/uL | ABSOLUTE LYMPHOCYTE [3]: 14418.33 CELLS/uL | ABSOLUTE MONOCYTE [3]: 118 CELLS/uL | ABSOLUTE SEGMENTED NEUTROPHIL [3]: 5662.33 CELLS/uL | BASOPHIL [3]: 0% | EOSINOPHIL [3]: 1.33% | ERYTHROCYTE COUNT [3]: 4.85 x10E6/uL | HEMATOCRIT [3]: 30.53% | HEMOGLOBIN [3]: 12.07 G/DL | LEUKOCYTE COUNT [3]: 20.5 x10E3/uL | LYMPHOCYTE [3]: 70.33% | MEAN CORPUSCULAR HEMOGLOBIN [3]: 24.9 pg | MEAN CORPUSCULAR HEMOGLOBIN CONCENTRATION [3]: 39.5 G/DL | MEAN CORPUSCULAR VOLUME [3]: 62.93 fL | MONOCYTE [3]: 0.67% | NEUTROPHIL [3]: 27.67% | NUCLEATED RED BLOOD CELLS [3]: 0.33 /100WBC | PLATELET COUNT [3]: 1467 x10E3/uL | ALANINE AMINOTRANSFERASE [3]: 44 u/L | ALKALINE PHOSPHATASE [3]: 267.67 u/L | ASPARTATE AMINOTRANSFERASE [3]: 86 u/L | BLOOD UREA NITROGEN [3]: 18 mg/dL | CARBON DIOXIDE [3]: 25 mmol/L | CHLORIDE [3]: 103.67 MEQ/L | CHOLESTEROL [3]: 58 mg/dL | CREATINE PHOSPHOKINASE [3]: 257.33 u/L | CREATININE [3]: 0.29 mg/dL | GLUCOSE [3]: 184.67 mg/dL | LACTATE DEHYDROGENASE [3]: 248 u/L | LIPASE [3]: 7.67 u/L | PHOSPHORUS [3]: 11.8 mg/dL | POTASSIUM [3]: 5.8 MEQ/L | SODIUM [3]: 142.87 MEQ/L | TOTAL BILIRUBIN [3]: 0.17 mg/dL | TOTAL PROTEIN [3]: 5.3 G/DL | URIC ACID [3]: 1.6 mg/dL
